The term MIC denotes the least concentration at which growth counts as inhibited. A low value points to inhibition by little substance.

In brackets after ≈: the same amount, converted by molar mass.

For six molecules, MIC results are on record in ChEMBL document CHEMBL1144385, “Solid-phase synthesis and antibacterial evaluations of N-demethylvancomycin derivatives” (2005).

Common to all, as to assay type: functional
Assay [1] deals with Staphylococcus aureus. The assay can be described thus: Minimum inhibitory concentration against growth of Methicillin resistant […] aureus.
Assay [2] deals with Staphylococcus aureus. The assay can be described thus: Minimum inhibitory concentration against growth of […] aureus (ATCC 29213).
The test system of assay [3] is Enterococcus faecalis. Kind of assay: Minimum inhibitory concentration against growth of Enterococcus faecalis (ATCC 29212).
The subject of assay [4] is Enterococcus faecalis. Kind of assay: Minimum inhibitory concentration against growth of vancomycin-resistant Enterococcus faecalis (ATCC 51299).

As to `CC(C)C[C@H](C(=O)N[C@H]1C(=O)N[C@@H](CC(N)=O)C(=O)N[C@H]2C(=O)N[C@H]3C(=O)N[C@H](C(=O)N[C@H](C(=O)NCC(=O)O)c4cc(O)cc(O)c4-c4cc3ccc4O)[C@H](O)c3ccc(c(Cl)c3)Oc3cc2cc(c3O[C@@H]2O[C@@H](CO)[C@@H](O)[C@H](O)[C@@H]2O[C@H]2C[C@](C)(NC(=O)OCC3c4ccccc4-c4ccccc43)[C@H](O)[C@H](C)O2)Oc2ccc(cc2Cl)[C@H]1O)N(C)C(=O)OCC1c2ccccc2-c2ccccc21`, the MIC in assay [1] was 5 µg/mL (≈ 2.56 µM); in assay [2], greater than 10 µg/mL; in assay [3] it was 10 µg/mL (≈ 5.13 µM); in assay [4], 5 µg/mL (≈ 2.56 µM).

Consider `CC(C)C[C@H](C(=O)N[C@H]1C(=O)N[C@@H](CC(N)=O)C(=O)N[C@H]2C(=O)N[C@H]3C(=O)N[C@H](C(=O)N[C@H](C(=O)NCC(=O)O)c4cc(O)cc(O)c4-c4cc3ccc4O)[C@H](O)c3ccc(c(Cl)c3)Oc3cc2cc(c3O[C@@H]2O[C@@H](CO)[C@@H](O)[C@H](O)[C@@H]2O[C@H]2C[C@](C)(Nc3cccnc3)[C@H](O)[C@H](C)O2)Oc2ccc(cc2Cl)[C@H]1O)N(CCc1ccccc1)CCc1ccccc1`, for which the MIC in assay [1], in assay [2], in assay [3] and in assay [4] was greater than 10 µg/mL throughout.

For the molecule `CN[C@H](CC(C)C)C(=O)N[C@H]1C(=O)N[C@@H](CC(N)=O)C(=O)N[C@H]2C(=O)N[C@H]3C(=O)N[C@H](C(=O)N[C@H](C(=O)NCC(=O)O)c4cc(O)cc(O)c4-c4cc3ccc4O)[C@H](O)c3ccc(c(Cl)c3)Oc3cc2cc(c3O[C@@H]2O[C@@H](CO)[C@@H](O)[C@H](O)[C@@H]2O[C@H]2C[C@](C)(NC(=O)OCC3c4ccccc4-c4ccccc43)[C@H](O)[C@H](C)O2)Oc2ccc(cc2Cl)[C@H]1O`, the MIC in assay [1] was 5 µg/mL (≈ 2.89 µM); in assay [2], greater than 10 µg/mL; in assay [3], 10 µg/mL (≈ 5.79 µM); in assay [4], 5 µg/mL (≈ 2.89 µM).

Consider `C/C=C/CN(C/C=C/C)[C@H](CC(C)C)C(=O)N[C@H]1C(=O)N[C@@H](CC(N)=O)C(=O)N[C@H]2C(=O)N[C@H]3C(=O)N[C@H](C(=O)N[C@H](C(=O)NCC(=O)O)c4cc(O)cc(O)c4-c4cc3ccc4O)[C@H](O)c3ccc(c(Cl)c3)Oc3cc2cc(c3O[C@@H]2O[C@@H](CO)[C@@H](O)[C@H](O)[C@@H]2O[C@H]2C[C@](C)(Nc3ccc(Cl)cc3)[C@H](O)[C@H](C)O2)Oc2ccc(cc2Cl)[C@H]1O`, for which the minimal inhibitory concentration (MIC) in assay [1], in assay [2], in assay [3] and in assay [4] was greater than 10 µg/mL in each case.

Take `CCC(CC)N[C@H](CC(C)C)C(=O)N[C@H]1C(=O)N[C@@H](CC(N)=O)C(=O)N[C@H]2C(=O)N[C@H]3C(=O)N[C@H](C(=O)N[C@H](C(=O)NCC(=O)O)c4cc(O)cc(O)c4-c4cc3ccc4O)[C@H](O)c3ccc(c(Cl)c3)Oc3cc2cc(c3O[C@@H]2O[C@@H](CO)[C@@H](O)[C@H](O)[C@@H]2OC2C[C@](C)(NC(CC)CC)[C@H](O)[C@H](C)O2)Oc2ccc(cc2Cl)[C@H]1O` (single isomer, unassigned): the MIC in assay [1], in assay [2], in assay [3] and in assay [4] was greater than 10 µg/mL throughout.

As for `CCC(CC)N[C@H](CC(C)C)C(=O)N[C@H]1C(=O)N[C@@H](CC(N)=O)C(=O)N[C@H]2C(=O)N[C@H]3C(=O)N[C@H](C(=O)N[C@H](C(=O)NCC(=O)O)c4cc(O)cc(O)c4-c4cc3ccc4O)[C@H](O)c3ccc(c(Cl)c3)Oc3cc2cc(c3O[C@@H]2O[C@@H](CO)[C@@H](O)[C@H](O)[C@@H]2O[C@H]2C[C@](C)(Nc3ccc(F)cc3)[C@H](O)[C@H](C)O2)Oc2ccc(cc2Cl)[C@H]1O`, the MIC in assay [1], in assay [2], in assay [3] and in assay [4] was greater than 10 µg/mL in each case.
